Source: US20130202586A1, “STEM CELL THERAPY USING INHIBITORS OF LYSOPHOSPHATIDIC ACID” (priority 2011, published 2013)

Legend:
[1] = test system: plated neurospheres (human NSC); test: Neuronal differentiation: neuron-forming neurospheres; assay type: cell-based
Procedure: (§1) Neurospheres were formed and cultured as described in Dottori, M. et al. (2008), supra. Briefly, human embryonic stem cells (HES-2, HES-3, and HES-4, WiCell Research Institute, Madison Wis.) were cultured according to previously published methods. Neuronal induction using noggin was performed according to published methods and after growth and subculture, cells were grown as neurospheres in the presence of growth factors. Neurospheres could be plated on dishes coated with laminin or fibronectin. When plated onto laminin and cultured with neural basal medium (NBM, R&D Systems, Minneapolis Minn.), neurospheres typically differentiate into neurons. Quantitation of neuron-forming spheres (a measure of neuronal differentiation) was done by counting the number of neurospheres from which neuronal outgrowth was visible.
[…] […] Dilutions of LPA were made in 0.1% fatty acid-free bovine serum albumin (final concentration 0.01% BSA).
The effect of LPA on an additional differentiation step, the differentiation of NSC toward mature cells, was also measured. When plated on laminin in NBM, neurospheres typically differentiate into neurons, as assayed by visible neurons, elongated cell shape and/or positive staining for β-tubulin.
Using the same conditions used in Example 2 for LPA treatment alone, plated neurospheres were treated with 10 μM LPA alone, or with anti-LPA antibody B3 or B7 (1 mg/ml) alone, or with 10 μM LPA in combination with 1 mg/ml of antibody B3 or B7. Similarly, cells were treated with 10 μM LPA alone, humanized anti-LPA antibody LT3015 alone (1 mg/ml) or with 10 μM LPA in combination with 1 mg/ml LT3015. The percent of neuron-forming neurospheres was quantitated as in Example 2 (beta-tubulin staining and quantification of neuron-forming spheres, as described in Dottori, et al (2008)). […] Neurosphere samples treated with B3 antibody alone had neuron-forming neurospheres equivalent to control (100%). […] The antibody B7, under similar conditions, had little to no effect in this experiment (37.00±5.31% of control). […]

[2] = test system: noggin-treated cells (human NSC); test: Neurosphere formation from noggin-treated human embryonic stem cells; assay type: cell-based; conditions: 5-7 days
Procedure: as §1
Plated neurospheres were incubated in the presence or absence of LPA (Sigma Aldrich, St. Louis, Mo.) and/or antibody (concentrations shown) for 5 days. Dilutions of LPA were made in 0.1% fatty acid-free bovine serum albumin (final concentration 0.01% BSA).
As shown by Dottori et al., LPA inhibits the ability of NSC to form neurospheres, even in the presence of bFGF and EGF. […] […] Dottori, M. et al. (2008), supra. […]

[3] = test system: adult mouse NSC; test: Neuronal differentiation of adult mouse NSC; assay type: cell-based
Description: However, and similarly to data obtained in human NSC, LPA inhibited the neuronal differentiation of adult mouse NSC by maintaining them as NSC when plated in conditions normally inducing neuronal differentiation. […] These effects were independent of apoptosis or proliferation.

[4] = test system: noggin-treated cells (human NSC); conditions: 10 μM LPA, 11-14 days, Dottori et al.; cited from earlier work
[5] = test system: plated neurospheres (human NSC); conditions: 10 μM LPA, Dottori et al.; cited from earlier work

lysophosphatidic acid [LPA]
neuron-forming neurospheres, % of untreated control ([1]; Example 4, 10 μM LPA alone): approximately 25.00±6.45% | neuron-forming spheres, % of control ([1]; Example 5, 3 days, 10 μM LPA alone): approximately 26% | neuron-forming neurospheres, pool of data ([1]; LPA alone): 25.00±6.45% | % neurosphere formation ([2]; 10 μM LPA): 13.500±5.590% | % neurosphere formation ([2]; LPA at 1 μM): 50±12.50% | neurosphere formation or growth of mouse NSC [3]: did not modify neurosphere formation or growth | nestin positive, % of total cells ([3]; LPA 10 μM, three days): 87.55±3.20% | βIII-tubulin expression, % of total cells ([3]; LPA 10 μM, three days): 26.25±2.08% | % of cultures formed neurospheres [4]: 13.47%±6.94 | neuronal cells from plated neurospheres [5]: did not give rise to neuronal cells
